Results as given in patent US20120029187A1, “HALOALKYLSULFONANILIDE DERIVATIVE” (Nissan Chemical Industries, Ltd., priority 2009, published 2012).

What was measured:
Assay type in all cases: in vivo
barnyardgrass [1] = experiment: Test Example 1: herbicidal effects in preemergence treatment under submerged conditions; conditions: dose 2.52 g/a
In short: (§1)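 Flooded-paddy preemergence assay; EC diluted with water, surface-applied at weed seeding; doses g/a; rice transplanted at 2.5 leaves; 0–5 mortality score after 3 weeks.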

bulrush [2] = experiment: as above; conditions: dose 2.52 g/a
In short: as §1

ducksalad [3] = experiment: as above; conditions: dose 2.52 g/a
In short: as §1

barnyardgrass [4] = experiment: Test Example 2: herbicidal effects during the vegetation period under submerged conditions; conditions: treatment during the vegetation period under submerged conditions; dose 2.52 g/a
In short: (§2)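 Barnyardgrass, bulrush and ducksalad were co-sown in alluvial soil flooded to 4 cm and grown in a greenhouse at 25 to 30° C. At the 1- or 2-leaf stage, water-diluted emulsifiable concentrates went onto the water surface at set doses (g/a). Herbicidal effect was scored three weeks later on a graded scale.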

bulrush [5] = experiment: as above; conditions: treatment during the vegetation period under submerged conditions; dose 2.52 g/a
In short: as §2

ducksalad [6] = experiment: as above; conditions: treatment during the vegetation period under submerged conditions; dose 2.52 g/a
In short: as §2

Italian ryegrass [7] = experiment: Test Example 3: herbicidal effects in soil treatment
In short: (§3)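 Seeds were sown in sterilized diluvial soil and covered with about 1.5 cm of soil. Compounds, formulated as emulsifiable concentrates and diluted with water, were sprayed evenly over the soil surface at set doses in g/a. Herbicidal effect was scored on a rating scale three weeks later.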

barnyardgrass [8] = experiment: as above
In short: as §3

common chickweed [9] = experiment: as above
In short: as §3

common lambsquater [10] = experiment: as above
In short: as §3

common ragweed [11] = experiment: as above
In short: as §3

giant foxtail [12] = experiment: as above
In short: as §3

large crabgrass [13] = experiment: as above
In short: as §3

redroot pigweed [14] = experiment: as above
In short: as §3

water foxtail [15] = experiment: as above
In short: as §3

wild oat [16] = experiment: as above; conditions: dose 6.3 g/a
In short: as §3

Italian ryegrass [17] = experiment: Test Example 4: herbicidal effect in foliage treatment
In short: (§4)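 14-day greenhouse-grown plants (25–30° C) sprayed on foliage with diluted EC; dose as g/a; effect graded after 3 weeks.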

barnyardgrass [18] = experiment: as above
In short: as §4

beadstraw = experiment: as above
In short: as §4

common chickweed [19] = experiment: as above
In short: as §4

common lambsquater [20] = experiment: as above
In short: as §4

common ragweed [21] = experiment: as above
In short: as §4

giant foxtail [22] = experiment: as above
In short: as §4

large crabgrass [23] = experiment: as above
In short: as §4

redroot pigweed [24] = experiment: as above
In short: as §4

water foxtail [25] = experiment: as above
In short: as §4

wild oat [26] = experiment: as above
In short: as §4

transplanted rice = experiment: Test Example 1: preemergence treatment under submerged conditions, effect on crop; conditions: dose 2.52 g/a
In short: as §1

posumbu knotweed [27] = experiment: Test Example 3: herbicidal effects in soil treatment; conditions: dose 3.2 g/a
In short: as §3

posumbu knotweed [28] = experiment: Test Example 4: herbicidal effect in foliage treatment; conditions: dose 3.2 g/a
In short: as §4

velvetleaf = experiment: as above; conditions: dose 3.2 g/a
In short: as §4

[29] = dose 6.3 g/a, three weeks after the application
[30] = dose 3.2 g/a, three weeks after application
[31] = dose 3.2 g/a, three weeks after the application
[32] = three weeks after the application

O=C1CCOCCN1Cc1ccccc1NS(=O)(=O)C(F)(F)F [Compound V-1]
A: barnyardgrass, herbicidal effect (evaluation scale 0-5) (barnyardgrass [1]): 5 (mortality of 90% or above (nearly complete death))
B: bulrush, herbicidal effect (evaluation scale 0-5) (bulrush [2]): 5 (mortality of 90% or above (nearly complete death))
C: ducksalad, herbicidal effect (evaluation scale 0-5) (ducksalad [3]): 5 (mortality of 90% or above (nearly complete death))
A: barnyardgrass, herbicidal effect (evaluation scale 0-5) (barnyardgrass [4]): 5 (mortality of 90% or above (nearly complete death))
B: bulrush, herbicidal effect (evaluation scale 0-5) (bulrush [5]): 5 (mortality of 90% or above (nearly complete death))
C: ducksalad, herbicidal effect (evaluation scale 0-5) (ducksalad [6]): 5 (mortality of 90% or above (nearly complete death))
herbicidal effect, H: Italian ryegrass (Italian ryegrass [7]; dose 6.3 g/a): 3 (mortality of at least 40% and less than 70%)
herbicidal effect, A: barnyardgrass (barnyardgrass [8]; dose 6.3 g/a): 5 (mortality of 90% or above (nearly complete death))
herbicidal effect, N: common chickweed (common chickweed [9]; dose 6.3 g/a): 5 (mortality of 90% or above (nearly complete death))
herbicidal effect, L: common lambsquater (common lambsquater [10]; dose 6.3 g/a): 5 (mortality of 90% or above (nearly complete death))
herbicidal effect, J: common ragweed (common ragweed [11]; dose 6.3 g/a): 5 (mortality of 90% or above (nearly complete death))
herbicidal effect, E: giant foxtail (giant foxtail [12]; dose 6.3 g/a): 4 (mortality of at least 70% and less than 90%)
herbicidal effect, D: large crabgrass (large crabgrass [13]; dose 6.3 g/a): 0 (mortality of less than 5% (almost ineffective))
herbicidal effect, K: redroot pigweed (redroot pigweed [14]; dose 6.3 g/a): 4 (mortality of at least 70% and less than 90%)
herbicidal effect, G: water foxtail (water foxtail [15]; dose 6.3 g/a): 5 (mortality of 90% or above (nearly complete death))
herbicidal effect, F: wild oat (wild oat [16]): 3 (mortality of at least 40% and less than 70%)
H: Italian ryegrass, herbicidal effect (Italian ryegrass [17]; [29]): 3 (mortality of at least 40% and less than 70%)
A: barnyardgrass, herbicidal effect (barnyardgrass [18]; [29]): 5 (mortality of 90% or above (nearly complete death))
O: beadstraw, herbicidal effect (beadstraw; [29]): 4 (mortality of at least 70% and less than 90%)
N: common chickweed, herbicidal effect (common chickweed [19]; [29]): 4 (mortality of at least 70% and less than 90%)
L: common lambsquater, herbicidal effect (common lambsquater [20]; [29]): 4 (mortality of at least 70% and less than 90%)
J: common ragweed, herbicidal effect (common ragweed [21]; [29]): 5 (mortality of 90% or above (nearly complete death))
E: giant foxtail, herbicidal effect (giant foxtail [22]; [29]): 5 (mortality of 90% or above (nearly complete death))
D: large crabgrass, herbicidal effect (large crabgrass [23]; [29]): 4 (mortality of at least 70% and less than 90%)
K: redroot pigweed, herbicidal effect (redroot pigweed [24]; [29]): 1 (mortality of at least 5% and less than 20%)
G: water foxtail, herbicidal effect (water foxtail [25]; [29]): 5 (mortality of 90% or above (nearly complete death))
F: wild oat, herbicidal effect (wild oat [26]; [29]): 0 (mortality of less than 5% (almost ineffective))

CCOC(=O)N(c1ccccc1CN1COC(c2ccccc2)CC1=O)S(=O)(=O)C(F)(F)F (centres unmarked) [II-10]
A: barnyardgrass, herbicidal effect (evaluation scale 0-5) (barnyardgrass [1]): 5 (mortality of 90% or above (nearly complete death))
B: bulrush, herbicidal effect (evaluation scale 0-5) (bulrush [2]): 5 (mortality of 90% or above (nearly complete death))
C: ducksalad, herbicidal effect (evaluation scale 0-5) (ducksalad [3]): 5 (mortality of 90% or above (nearly complete death))
a: transplanted rice, effect on crop (evaluation scale 0-5) (transplanted rice): 0 (mortality of less than 5% (almost ineffective))
A: barnyardgrass, herbicidal effect (evaluation scale 0-5) (barnyardgrass [4]): 4 (mortality of at least 70% and less than 90%)
B: bulrush, herbicidal effect (evaluation scale 0-5) (bulrush [5]): 5 (mortality of 90% or above (nearly complete death))
C: ducksalad, herbicidal effect (evaluation scale 0-5) (ducksalad [6]): 5 (mortality of 90% or above (nearly complete death))
H: Italian ryegrass, herbicidal effect (evaluation scale 0-5) (Italian ryegrass [7]; dose 3.2 g/a): 2 (mortality of at least 20% and less than 40%)
A: barnyardgrass, herbicidal effect (evaluation scale 0-5) (barnyardgrass [8]; dose 3.2 g/a): 4 (mortality of at least 70% and less than 90%)
N: common chickweed, herbicidal effect (evaluation scale 0-5) (common chickweed [9]; dose 3.2 g/a): 5 (mortality of 90% or above (nearly complete death))
L: common lambsquater, herbicidal effect (evaluation scale 0-5) (common lambsquater [10]; dose 3.2 g/a): 3 (mortality of at least 40% and less than 70%)
J: common ragweed, herbicidal effect (evaluation scale 0-5) (common ragweed [11]; dose 3.2 g/a): 0 (mortality of less than 5% (almost ineffective))
E: giant foxtail, herbicidal effect (evaluation scale 0-5) (giant foxtail [12]; dose 3.2 g/a): 4 (mortality of at least 70% and less than 90%)
D: large crabgrass, herbicidal effect (evaluation scale 0-5) (large crabgrass [13]; dose 3.2 g/a): 4 (mortality of at least 70% and less than 90%)
M: posumbu knotweed, herbicidal effect (evaluation scale 0-5) (posumbu knotweed [27]): 0 (mortality of less than 5% (almost ineffective))
K: redroot pigweed, herbicidal effect (evaluation scale 0-5) (redroot pigweed [14]; dose 3.2 g/a): 0 (mortality of less than 5% (almost ineffective))
G: water foxtail, herbicidal effect (evaluation scale 0-5) (water foxtail [15]; dose 3.2 g/a): 5 (mortality of 90% or above (nearly complete death))
H: Italian ryegrass, herbicidal effect (Italian ryegrass [17]; [30]): 1 (mortality of at least 5% and less than 20%)
A: barnyardgrass, herbicidal effect (barnyardgrass [18]; [30]): 4 (mortality of at least 70% and less than 90%)
O: beadstraw, herbicidal effect (beadstraw; [30]): 3 (mortality of at least 40% and less than 70%)
N: common chickweed, herbicidal effect (common chickweed [19]; [30]): 4 (mortality of at least 70% and less than 90%)
L: common lambsquater, herbicidal effect (common lambsquater [20]; [30]): 3 (mortality of at least 40% and less than 70%)
J: common ragweed, herbicidal effect (common ragweed [21]; [30]): 3 (mortality of at least 40% and less than 70%)
E: giant foxtail, herbicidal effect (giant foxtail [22]; [30]): 3 (mortality of at least 40% and less than 70%)
D: large crabgrass, herbicidal effect (large crabgrass [23]; [30]): 0 (mortality of less than 5% (almost ineffective))
M: posumbu knotweed, herbicidal effect (posumbu knotweed [28]; three weeks after application): 4 (mortality of at least 70% and less than 90%)
K: redroot pigweed, herbicidal effect (redroot pigweed [24]; [30]): 0 (mortality of less than 5% (almost ineffective))
I: velvetleaf, herbicidal effect (velvetleaf; three weeks after application): 4 (mortality of at least 70% and less than 90%)
G: water foxtail, herbicidal effect (water foxtail [25]; [30]): 4 (mortality of at least 70% and less than 90%)
F: wild oat, herbicidal effect (wild oat [26]; [30]): 0 (mortality of less than 5% (almost ineffective))

CCOC(=O)N(c1ccccc1CN1COC(C)(C(F)(F)F)C(Br)C1=O)S(=O)(=O)C(F)(F)F (centres unmarked) [II-75]
A: barnyardgrass, herbicidal effect (evaluation scale 0-5) (barnyardgrass [1]): 5 (mortality of 90% or above (nearly complete death))
B: bulrush, herbicidal effect (evaluation scale 0-5) (bulrush [2]): 5 (mortality of 90% or above (nearly complete death))
C: ducksalad, herbicidal effect (evaluation scale 0-5) (ducksalad [3]): 5 (mortality of 90% or above (nearly complete death))
a: transplanted rice, effect on crop (evaluation scale 0-5) (transplanted rice): 0 (mortality of less than 5% (almost ineffective))
A: barnyardgrass, herbicidal effect (evaluation scale 0-5) (barnyardgrass [4]): 5 (mortality of 90% or above (nearly complete death))
B: bulrush, herbicidal effect (evaluation scale 0-5) (bulrush [5]): 5 (mortality of 90% or above (nearly complete death))
C: ducksalad, herbicidal effect (evaluation scale 0-5) (ducksalad [6]): 5 (mortality of 90% or above (nearly complete death))
H: Italian ryegrass, herbicidal effect (Italian ryegrass [17]; [31]): 3 (mortality of at least 40% and less than 70%)
A: barnyardgrass, herbicidal effect (barnyardgrass [18]; [31]): 4 (mortality of at least 70% and less than 90%)
O: beadstraw, herbicidal effect (beadstraw; [31]): 5 (mortality of 90% or above (nearly complete death))
N: common chickweed, herbicidal effect (common chickweed [19]; [31]): 3 (mortality of at least 40% and less than 70%)
L: common lambsquater, herbicidal effect (common lambsquater [20]; [31]): 4 (mortality of at least 70% and less than 90%)
J: common ragweed, herbicidal effect (common ragweed [21]; [31]): 0 (mortality of less than 5% (almost ineffective))
E: giant foxtail, herbicidal effect (giant foxtail [22]; [31]): 1 (mortality of at least 5% and less than 20%)
D: large crabgrass, herbicidal effect (large crabgrass [23]; [31]): 1 (mortality of at least 5% and less than 20%)
M: posumbu knotweed, herbicidal effect (posumbu knotweed [28]; [32]): 1 (mortality of at least 5% and less than 20%)
K: redroot pigweed, herbicidal effect (redroot pigweed [24]; [31]): 3 (mortality of at least 40% and less than 70%)
I: velvetleaf, herbicidal effect (velvetleaf; [32]): 3 (mortality of at least 40% and less than 70%)
G: water foxtail, herbicidal effect (water foxtail [25]; [31]): 2 (mortality of at least 20% and less than 40%)
F: wild oat, herbicidal effect (wild oat [26]; [31]): 0 (mortality of less than 5% (almost ineffective))
